Like-named read-outs stand apart in the source and are kept apart here.
Columns and labels:
C6 cells [1] = assay: Conditioned medium from co-cultures added to naive C6 cells; assay type: cell-based, rat; details: CM from co-cultures with 0, 10, or 50% P450 2B1 cells after four-day CPA
Description: (§1) Co-culture assay: Co-cultures of C6-P450 and C6 cells were incubated in triplicate at different ratios (where 0, 10, 50, 90, and 100% of the cells were C6-P450 cells) to achieve a total number of 2×10^6 cells/10 cm dish. After 24 hours, 0.5 mM CPA was added and four days later, cells were counted as previously described. To compare the killing achieved by cell contact with that obtained by exposure to conditioned medium, the supernatant from each co-culture was harvested, filtered through 0.45 μm membrane filters, mixed in a 1:1 ratio with 5 mL of fresh medium and added to overnight cultures of C6 cells (2×10^6 cells/10 cm dish in triplicate). Four days later, C6 cells were washed, harvested and counted. To determine the specificity of the cell-mediated killing effect from the co-culture assays, C6 cells were incubated overnight with C6 cells that expressed the neomycin phosphotransferase gene (C6-Neo), with irradiated C6 cells, with irradiated C6-Neo, and with irradiated C6-P450 cells. γ-irradiation was performed by exposing cells to a total of 6000 rads emitted by a ^51 chromium source.

[2] = tested on: C450-8 (C6-derived clone, cytochrome P450 2B1); assay: Growth in the presence of 500 μM cyclophosphamide; details: 500 μM CPA, four days
[3] = tested on: parental 9L cells co-cultured with 9L-ZP cells; assay: Co-culture experiments with culture inserts; assay type: cell-based, rat; details: 1 mM cyclophosphamide, 5 days, no cell contact
Description: Co-culture Experiments: Parental 9L cells were plated in the bottom wells of culture plates (Falcon 3502), and cytochrome P450 2B1-negative or cytochrome P450 2B1-positive cells were plated into 25 mm cell culture inserts (0.45 μm pore size, Falcon 3090). Culture media were removed 18-24 hours later by aspiration. Culture medium without drug (1.0 mL) was added to the bottom well, and 1.0 mL medium containing drug was added to the upper cell culture insert. Cell numbers were determined 5 days later, as described above.

[4] = tested on: cytochrome P450 2B1-positive cells (9L-ZP and L450-2); assay: cells; details: Rattus norvegicus, 120 h
C6 cells [5] = assay: Cyclophosphamide dose-response assay; assay type: cell-based; details: Rattus norvegicus, up to 1 mM CPA, read-out: cells that survived incubation
Description: Two days later CPA was added to final concentrations of 0-100 μM. Five days after plating, the monolayers were rinsed twice with Hank's buffered saline (GIBCO) to remove dead cells. Monolayers were dispersed using trypsin-EDTA (GIBCO), and cell numbers were determined using a Coulter counter (Coulter Electronics Inc.).

[6] = tested on: C6 cells co-cultured with C6-P450 cells; assay: Co-culture assay (cell-mediated effect); assay type: cell-based, rat; details: 0.5 mM CPA; for inhibition at 500 µM: Rattus norvegicus, C6, 96 h, 4 days, read-out: decrease in the proliferation of C6 cells
Description: as §1

[7] = tested on: C6 cells co-cultured with C6-P450 cells across a filter; assay: Secretory effect assay (insert system); assay type: cell-based; details: Rattus norvegicus
Description: Secretory effect assay: To assess the effect of conditioned medium, cells were co-cultured in dishes using the "insert" system (Falcon). This consists of tissue culture dishes (diameter=3.5 cm), which contain a micropore membrane (pore diameter=0.45 μm) that physically separates cell populations plated into the upper and lower chambers but permits the exchange of components in the medium. C6 cells (3.4×10^5 cells) were plated into the bottom chamber, while C6-P450 (3.4×10^5 cells) or C6-Neo cells (3.4×10^5 cells) were plated into the upper chamber (on top of the filter) in a total volume of 5 mL of medium. After an overnight incubation, 0.5 mM CPA was added to this medium. Four days later, the membrane on which the C6-P450 or C6-Neo cells were growing was removed and then the number of C6 glioma cells in the lower chamber was determined by counting with a Coulter apparatus. Surviving C6 cells were then replated at a density of 2×10^5 cells per 10 cm dish without CPA. Nine days later, these cells were trypsinized and counted using the Coulter apparatus.

[8] = tested on: cytochrome P450 2B1-negative cells (parental 9L and 9L-Z); assay: Drug sensitivity of cultured 9L cells; assay type: cell-based, rat; details: millimolar concentrations
Description: To test for drug sensitivity, 1×10^5 cells were plated in 30-mm tissue culture plates (Falcon 3046) in duplicate. Drugs were added 18-24 hours after seeding. Cells were allowed to grow for times ranging up to 5 days after drug treatment, and the final cell number was then determined. Cells were rinsed with phosphate buffered saline or Hank's buffered saline, dispersed using trypsin-EDTA (GIBCO/BRL, Inc.), and then counted with a hemocytometer. Results are expressed as a growth ratio, i.e., the number of cells in plates containing drug as a percentage of the corresponding drug-free controls (mean±range of duplicate determinations).

[9] = tested on: C6BU1 (HSV-TK negative) cells; assay: Ganciclovir sensitivity, cell proliferation assay; assay type: cell-based, rat; details: even at 1000 nM ganciclovir
Description: (§2) Ganciclovir Sensitivity Assays in Culture: To measure the sensitivity of isolated cells, cells were plated in 24-well plates at a density of 10^4 cells per well. The next day, medium was replaced with medium containing ganciclovir (Cytovene, Burroughs Wellcome) at varying concentrations (0-1 μM) in quadruplicate. Four days later, cells were harvested using trypsin and counted using a cell counter (Coulter Electronics Ltd., Luton, United Kingdom). Cell growth is expressed as the percentage of cells compared to the number of cells without treatment (100%).

C6BAGWT cells = assay: Ganciclovir sensitivity, cell proliferation assay; assay type: cell-based, rat; details: even at 1000 nM ganciclovir
Description: as §2

C6BBAG cells = assay: Ganciclovir sensitivity, cell proliferation assay; assay type: cell-based, rat; details: even at 1000 nM ganciclovir
Description: as §2

C6BWT cells = assay: Ganciclovir sensitivity, cell proliferation assay; assay type: cell-based, rat; details: even at 1000 nM ganciclovir
Description: as §2

C6BAG cells = assay: Ganciclovir sensitivity, cell proliferation assay; assay type: cell-based, rat; details: even at 1000 nM ganciclovir
Description: as §2

C6VIK cells = assay: Ganciclovir sensitivity, cell proliferation assay; assay type: cell-based; details: Rattus norvegicus, 96 h; four-day period; read-out: Fifty percent inhibition of growth
Description: as §2

C6VIKWT cells = assay: Ganciclovir sensitivity, cell proliferation assay; assay type: cell-based; details: Rattus norvegicus, 96 h; four-day period; read-out: Fifty percent inhibition of growth
Description: as §2

C6VIKWT tumors = assay: Ganciclovir sensitivity of subcutaneous tumors in vivo; design: species or system nude mice
Description: Ganciclovir therapy was begun when tumor size reached 1 cm in diameter as measured by calipers, by intraperitoneal injections up to 25 mg/kg daily for 14 days. […] Tumor volumes were measured biweekly during treatment over a 24 day period, and were expressed as a percentage compared to the volume at the time treatment was begun.

For `O=P1(N(CCCl)CCCl)NCCCO1` (centres unmarked) [cyclophosphamide], the “Inhibition of proliferation of C6 cells” value (C6 cells [1]) was “no inhibition”, the Cell destruction [2] was “destroyed completely” and the “Killing of both cell populations” value [3] was “killed”. For the same compound, the IC50 [4] was about 70000 nM, the viability at 1000 µM (C6 cells [5]) was at least 80% and the “Inhibition of proliferation of remaining C6 cells” value ([6]; 90% C6-P450 cells, four days) was “complete inhibition”. It also gave an inhibition at 500 µM ([6]; 10% of cells express the P450 gene) of 75%, an inhibition at 500 µM ([6]; 50% of cells contain the P450 gene) of about 85% and an inhibition at 500 µM ([7]; C6, 96 h, 0.5 mM CPA, 1:1 ratio, four days, read-out: decrease in the number of C6 cells) of about 50%. The inhibition at 500 µM ([7]; C6, 216 h, replated without CPA, nine days, read-out: decrease in C6 cell number after trypsinization and replating) was about 90% and the Effects on growth [8] was “no adverse effects”.
In the case of `Nc1nc(O)c2ncn(COC(CO)CO)c2n1` [ganciclovir], the Inhibition of growth [9] is reported as “No substantial inhibition of growth”, the Inhibition of growth (C6BAGWT cells) is reported as “No substantial inhibition of growth” and the Inhibition of growth (C6BBAG cells) is reported as “No substantial inhibition of growth”. The Inhibition of growth (C6BWT cells) was “No substantial inhibition of growth”, the Inhibition of growth (C6BAG cells) was “No substantial inhibition of growth” and the IC50 (C6VIK cells) was 10 nM. For the same compound, the IC50 (C6VIKWT cells) was 0.3 nM, the Tumor growth (C6VIKWT tumors; ganciclovir for 14 days from tumor size 1 cm) was “inhibited subsequent growth completely” and the Tumor regression (C6VIKWT tumors; subcutaneous inoculation, GCV treatment) was “regression of tumors in most nude mice”.
